Laboratory results: article PMC3335078, “Length and Amino Acid Sequence of Peptides Substituted for the 5-HT3A Receptor M3M4 Loop May Affect Channel Expression and Desensitization” (PLoS ONE, 2012)

Legend:
[1] = molecular target: T1, 5-HT3A M3M4 loop AAPARAA construct (Mus musculus, UniProt P23979); test: Two-electrode voltage clamp, oocytes expressing AAPARAA loop construct; type: cell-based; conditions: 10 µM 5-HT, Xenopus oocytes
T1 construct: expressed in transfected cells; host or cells: Xenopus laevis oocytes injected with mRNA
From the text: (§1) The mouse 5-HT3A cDNA with an N-terminal V5 epitope tag was cloned into the pXOON vector as previously described, and is referred to in this paper as “wild-type” (WT). The starting construct for all of the M3M4 loop replacement constructs used in this work was the 5-HT3A-ΔM3M4 construct formed by splicing the cytoplasmic end of M3 (M3-LVHK/QDLQRP…) to the cytoplasmic end of M4 (…WLRVGY/VLDRLL-M4). The splice was made at the site of the “/” to yield the sequence M3-LVHK/VLDRLL-M4 [34]. This removed 115 residues predicted to form the M3M4 loop.
(§2) The construction of the 5-HT3A-glvM3M4 chimera with the 5-HT3A M3M4 loop replaced by the GLIC heptapeptide M3M4 loop (SQPARAA) was described previously. Point mutations, alanine and Gly-Ser-Ala insertions into the 5-HT3A-ΔM3M4 construct were generated with the Quikchange site directed mutagenesis procedure (Stratagene, La Jolla, CA). […]
(§3) Currents were recorded under two-electrode voltage clamp from oocytes 2–5 d post-injection as described previously. […]
(§4) Desensitization rates were determined by fitting a single exponential decay function to the current data with Prism 4 software (GraphPad Software). Significant differences compared with wild-type were determined by a one-way ANOVA (p<0.05) using Dunnett's multiple comparison post-hoc test (p<0.05). […]

[2] = molecular target: T2, 5-HT3A M3M4 loop GSA mutant (Mus musculus, UniProt P23979, DELINS338-452GSA); test: Two-electrode voltage clamp, oocytes expressing GSA M3M4 mutant; type: cell-based; conditions: 10 µM 5-HT, Xenopus oocytes
T2 construct: expressed in transfected cells; host or cells: Xenopus laevis oocytes injected with mRNA
From the text: as §1, §2, §3, §4

[3] = molecular target: T3, 5-HT3A M3M4 loop SQPAAAA construct (Mus musculus, UniProt P23979); test: Two-electrode voltage clamp, oocytes expressing SQPAAAA loop construct; type: cell-based; conditions: 10 µM 5-HT, Xenopus oocytes
T3 construct: expressed in transfected cells; host or cells: Xenopus laevis oocytes injected with mRNA
From the text: as §1, §2, §3, §4

[4] = molecular target: T4, 5-HT3A receptor wild-type (Mus musculus, UniProt P23979); test: Radioactive 5-HT binding to oocytes expressing WT 5-HT3A; conditions: 150 nM [3H]5-HT + 10 µM 5-HT, 5 min room temperature, 45 s cold wash
T4 construct: unrelated to the structural/functional states accessible to a normal full-length 5-HT3A receptor; expressed in transfected cells; host or cells: Xenopus laevis oocytes injected with mRNA
Experimental: (§5) Assays were terminated by five washes with ice cold CFFR buffer, followed by solubilization of the oocytes individually with 200 µl 5% SDS. Total wash time was 45 s. […] All data points represent the average of at least fifteen individual oocytes derived from three separate oocyte isolations.
(§6) To determine the extent of non-specific binding, all binding experiments were performed in parallel with diethylpyrocarbonate-(DEPC)-treated-water injected oocytes or uninjected oocytes.

5-HT3A-A7 = molecular target: T5, 5-HT3A-A7 (Mus musculus, UniProt P23979); test: Radioactive 5-HT binding to oocytes expressing 5-HT3A-A7; conditions: 150 nM [3H]5-HT + 10 µM 5-HT, 5 min, 45 s cold wash
T5 construct: expressed in transfected cells; host or cells: Xenopus laevis oocytes injected with mRNA
Experimental: as §5, §6

[5] = molecular target: T6, 5-HT3A M3M4 loop SQPAARA construct (Mus musculus, UniProt P23979); test: Two-electrode voltage clamp, oocytes expressing SQPAARA loop construct; type: cell-based; conditions: 10 µM 5-HT, Xenopus oocytes
T6 construct: expressed in transfected cells; host or cells: Xenopus laevis oocytes injected with mRNA
From the text: as §1, §2, §3, §4

[6] = molecular target: T7, 5-HT3A construct with single glycine in place of the single alanine (Mus musculus, UniProt P23979, DELINS338-452G); test: Two-electrode voltage clamp, oocytes expressing single glycine loop construct; type: cell-based; conditions: Xenopus oocytes, data not shown
T7 construct: expressed in transfected cells; host or cells: Xenopus laevis oocytes injected with mRNA
From the text: as §1, §2, §3, §4

[7] = molecular target: T8, 5-HT3A-A2 (M3M4 loop replaced by two alanines) (Mus musculus, UniProt P23979, DELINS338-452AA); test: Two-electrode voltage clamp, oocytes expressing 5-HT3A-A2; type: cell-based
T8 construct: expressed in transfected cells; host or cells: Xenopus laevis oocytes injected with mRNA
T8 sequence (P23979 with tags, fused parts or gaps isoform P23979-2 DELINS338-452AA limits assumed): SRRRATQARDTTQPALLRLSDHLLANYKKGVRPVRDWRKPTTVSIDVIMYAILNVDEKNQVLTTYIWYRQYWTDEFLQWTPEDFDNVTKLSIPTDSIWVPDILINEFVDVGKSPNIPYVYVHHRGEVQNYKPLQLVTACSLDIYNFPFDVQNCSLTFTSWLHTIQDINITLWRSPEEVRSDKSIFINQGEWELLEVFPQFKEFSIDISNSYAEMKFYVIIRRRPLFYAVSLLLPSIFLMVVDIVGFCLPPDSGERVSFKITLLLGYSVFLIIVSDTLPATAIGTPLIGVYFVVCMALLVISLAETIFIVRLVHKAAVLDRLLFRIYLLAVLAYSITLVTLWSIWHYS
From the text: as §1
The construction of the 5-HT3A-glvM3M4 chimera with the 5-HT3A M3M4 loop replaced by the GLIC heptapeptide M3M4 loop (SQPARAA) was described previously. Point mutations, alanine and Gly-Ser-Ala insertions into the 5-HT3A-ΔM3M4 construct were generated with the Quikchange site directed mutagenesis procedure (Stratagene, La Jolla, CA). The entire coding region of all mutant constructs was verified by DNA sequencing (Albert Einstein College of Medicine DNA Sequencing Facility). The pXOON plasmid was linearized using NheI and capped mRNA prepared with T7 RNA polymerase (mMessage mMachine, Ambion, Austin, TX).
Use of Xenopus laevis in this study was carried out in strict accordance with the recommendations in the Guide for the Care and Use of Laboratory Animals of the National Institutes of Health. The protocol was approved by the Albert Einstein College of Medicine Animal Care and Use Committee (Protocol Number: 20081201). All surgery was performed under tricaine anesthesia, and all efforts were made to minimize suffering. Oocyctes were harvested from Xenopus (Nasco Science, Fort Atkinson, WI) anesthetized with 0.15% tricaine. Oocyctes were defolliculated by incubation in 2 mg ml^−1 Type 1A collagenase (Sigma-Aldrich, St. Louis, MO) in OR2 (85 mM NaCl, 2 mM KCl, 1 mM MgCl2, and 5 mM HEPES; pH adjusted to 7.5 with NaOH) for a 60 or 75 min. Oocytes were washed in OR2 and stored at 16°C in SOS medium: 100 mM NaCl, 2 mM KCl, 1 mM MgCl2, 1.8 mM CaCl2 5 mM HEPES, pH 7.5 with 100 IU ml^−1 penicillin, 100 µg ml^−1 streptomycin, and 250 ng ml^−1 amphotericin B (Invitrogen, Carlsbad, CA) and 5% horse serum (Sigma-Aldrich). 24 hrs following isolation, oocyctes were injected with 23 nl (2.3 ng) of mRNA and were kept in SOS media for 2–5 d at 16°C.
Currents were recorded under two-electrode voltage clamp from oocytes 2–5 d post-injection as described previously. […] The perfusion chamber volume was 200 µl. […]
as §4

T6 sequence (P23979 with tags, fused parts or gaps): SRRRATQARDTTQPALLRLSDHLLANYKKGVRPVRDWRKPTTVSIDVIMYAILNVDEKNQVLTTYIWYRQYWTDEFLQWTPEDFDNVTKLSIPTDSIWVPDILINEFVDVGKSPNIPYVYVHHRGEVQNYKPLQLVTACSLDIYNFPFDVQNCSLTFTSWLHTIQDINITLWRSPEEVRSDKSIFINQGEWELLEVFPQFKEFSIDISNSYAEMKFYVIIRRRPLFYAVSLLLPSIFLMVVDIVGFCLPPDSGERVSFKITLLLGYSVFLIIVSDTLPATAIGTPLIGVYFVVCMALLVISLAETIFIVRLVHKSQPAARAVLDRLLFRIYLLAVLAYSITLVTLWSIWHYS
T5 sequence (P23979 with tags, fused parts or gaps isoform P23979-2 limits assumed): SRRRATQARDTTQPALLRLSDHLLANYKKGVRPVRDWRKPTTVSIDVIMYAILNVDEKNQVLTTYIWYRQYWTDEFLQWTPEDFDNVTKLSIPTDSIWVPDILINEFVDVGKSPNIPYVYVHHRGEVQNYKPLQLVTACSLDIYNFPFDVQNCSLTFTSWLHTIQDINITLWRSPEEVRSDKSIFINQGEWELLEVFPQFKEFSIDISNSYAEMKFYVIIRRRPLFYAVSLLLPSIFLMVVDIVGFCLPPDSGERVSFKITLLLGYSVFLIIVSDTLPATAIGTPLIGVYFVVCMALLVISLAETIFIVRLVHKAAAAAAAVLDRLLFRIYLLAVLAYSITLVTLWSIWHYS
T4 sequence (P23979 24-483 isoform P23979-2 limits assumed): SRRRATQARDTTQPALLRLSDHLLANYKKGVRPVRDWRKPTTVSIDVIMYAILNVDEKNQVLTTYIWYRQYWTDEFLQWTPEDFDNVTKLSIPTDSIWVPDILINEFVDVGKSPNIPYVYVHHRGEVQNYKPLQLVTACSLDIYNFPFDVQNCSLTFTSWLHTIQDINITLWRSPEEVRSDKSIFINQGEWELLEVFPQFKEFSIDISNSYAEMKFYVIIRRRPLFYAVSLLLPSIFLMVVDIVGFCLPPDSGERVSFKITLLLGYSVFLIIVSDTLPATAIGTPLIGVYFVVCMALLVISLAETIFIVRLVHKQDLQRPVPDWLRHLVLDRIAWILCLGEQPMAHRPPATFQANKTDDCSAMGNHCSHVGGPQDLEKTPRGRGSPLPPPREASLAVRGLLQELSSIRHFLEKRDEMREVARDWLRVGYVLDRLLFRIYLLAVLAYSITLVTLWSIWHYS
T3 sequence (P23979 with tags, fused parts or gaps): as the sequence (P23979 with tags, fused parts or gaps isoform P23979-2 limits assumed) above, with A315S, A316Q, A317P counted along it
T2 sequence (P23979 with tags, fused parts or gaps isoform P23979-2 DELINS338-452GSA limits assumed): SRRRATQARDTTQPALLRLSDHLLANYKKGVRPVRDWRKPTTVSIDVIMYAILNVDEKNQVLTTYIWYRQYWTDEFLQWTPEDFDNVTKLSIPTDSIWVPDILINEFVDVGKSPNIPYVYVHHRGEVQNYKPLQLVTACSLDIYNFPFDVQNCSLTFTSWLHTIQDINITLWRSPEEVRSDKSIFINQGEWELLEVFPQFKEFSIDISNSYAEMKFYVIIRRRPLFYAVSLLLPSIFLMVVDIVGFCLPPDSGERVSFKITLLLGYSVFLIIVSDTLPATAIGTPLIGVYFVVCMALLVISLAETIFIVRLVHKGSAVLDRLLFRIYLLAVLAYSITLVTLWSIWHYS
T1 sequence (P23979 with tags, fused parts or gaps): as the sequence (P23979 with tags, fused parts or gaps isoform P23979-2 limits assumed) above, with A317P, A319R counted along it
T7 sequence (P23979 with tags, fused parts or gaps isoform P23979-2 DELINS338-452G limits assumed): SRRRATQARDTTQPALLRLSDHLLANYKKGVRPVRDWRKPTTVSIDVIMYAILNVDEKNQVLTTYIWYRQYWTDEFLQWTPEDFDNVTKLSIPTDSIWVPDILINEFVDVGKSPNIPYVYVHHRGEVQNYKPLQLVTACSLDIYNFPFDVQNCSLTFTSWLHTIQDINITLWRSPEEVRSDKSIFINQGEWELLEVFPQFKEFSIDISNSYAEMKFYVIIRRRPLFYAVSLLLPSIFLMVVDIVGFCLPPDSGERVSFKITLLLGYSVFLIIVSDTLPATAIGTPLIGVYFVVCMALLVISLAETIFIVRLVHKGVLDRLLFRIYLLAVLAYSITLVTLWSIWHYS

## NCCc1c[nH]c2ccc(O)cc12 [5-HT, 5-hydroxytryptamine]
[1]
  Channel function (5-HT induced current): non-functional channels
[2]
  5-HT induced current: 50±12 nA
[3]
  5-HT induced current: large currents
[4]
  Radiolabeled 5-HT bound per oocyte: 2.50±0.3 pmol per oocyte
5-HT3A-A7
  Radiolabeled 5-HT bound per oocyte: 0.40±0.08 pmol per oocyte
[5]
  Peak current: 320±25 nA
[6]
  5-HT induced current: neither construct generated any 5-HT induced currents
[7]
  nH (Hill coefficient): 2.0±0.3
[7]; 10 µM 5-HT
  10–90% Activation rise time: 617 ± 32 ms
[7]; 10 µM 5-HT, Xenopus oocytes, -60 mV
  Imax (peak current): 6900±260 nA
[7]; prolonged 10 µM 5-HT
  Desensitization time constant τ: 43 ± 4 s
